Experimental data taken from paper PMC5102573 (Clinical Pharmacology and Therapeutics, 2016).
“And” between values parts separate entries of the source, which are not always exact repeats. Identical values can stand only once. Counter-ions that a name gives are not always drawn. Like-named read-outs stand apart in the source and are kept apart here. Each block holds one compound with its values, some of them ahead of it.

Tests used:
[1] = rosuvastatin 10 mg q.d. with metformin 750 mg q.d.; cited from earlier work
[2] = 5 mg rosuvastatin and 600 mg rifampin; cited from earlier work
[3] = cocktail T1 vs alone, geometric mean ratio
[4] = cocktail T2 vs alone, geometric mean ratio
[5] = cocktail T3 vs alone, geometric mean ratio

- CLR,0-24 decrease in cocktails vs drug alone (Urinary excretion; cocktails T1 and T3 vs alone): 10–18%
- fe0-36 decrease in cocktails vs drug alone (Urinary excretion; cocktails T1 and T3 vs alone): 10–18%
Compound: CN(C)C(=N)N=C(N)N [Metformin, metformin hydrochloride]

- CLR,0-36 in the different treatment periods (Urinary excretion; alone vs cocktails): comparable
- fe0-36, gMean (Urinary excretion; analyte given in Test Cocktail 1): 7.93%
- fe0-36, gMean (Urinary excretion; drug given alone, fraction excreted in urine 0-36 h): 5.45%
- fe0-36 in cocktails T1, T2, and T3 compared to drug alone (Urinary excretion; in vivo): higher
- AUC0-tz increase (higher) in cocktail vs drug alone [3]: 43.4% and 43%
- AUC0-∞ increase in cocktail vs drug alone [3]: 27.8%
- Cmax increase (higher) in cocktail vs drug alone [3]: 38.6% and 39%
- AUC0-tz increase in cocktail vs drug alone [4]: 50.9%
- AUC0-∞ increase in cocktail vs drug alone [4]: 37.4%
- Cmax increase in cocktail vs drug alone [4]: 37.9%
- AUC0-tz increase in cocktail vs drug alone [5]: 45.6%
- AUC0-∞ increase in cocktail vs drug alone [5]: 23.3%
- Cmax increase in cocktail vs drug alone [5]: 40.1%
- AUC0-tz, Ratio T/R (relative bioavailability) (test cocktail T1 vs drug alone): 143.39%
- AUC0-∞, Ratio T/R (relative bioavailability) (test cocktail T1 vs drug alone): 127.83%
- Cmax, Ratio T/R (relative bioavailability) (test cocktail T1 vs drug alone): 138.57%
- AUC0-tz, Ratio T/R (relative bioavailability) (test cocktail T2 vs drug alone): 150.87%
- AUC0-∞, Ratio T/R (relative bioavailability) (test cocktail T2 vs drug alone): 137.43%
- Cmax, Ratio T/R (relative bioavailability) (test cocktail T2 vs drug alone): 137.93%
- AUC0-tz, Ratio T/R (relative bioavailability) (test cocktail T3 vs drug alone): 145.61%
- AUC0-∞, Ratio T/R (relative bioavailability) (test cocktail T3 vs drug alone): 123.25%
- Cmax, Ratio T/R (relative bioavailability) (test cocktail T3 vs drug alone): 140.05%
Compound: CC(C)c1nc(N(C)S(C)(=O)=O)nc(-c2ccc(F)cc2)c1/C=C/[C@@H](O)C[C@@H](O)CC(=O)O [Rosuvastatin, rosuvastatin]
- effect of metformin on AUCτ [1]: did not alter
- increase of geometric mean Cmax,ss caused by metformin [1]: 23%
- increase of plasma AUC0-24 with rifampin [2]: 5.2 fold
- increase of plasma Cmax with rifampin [2]: 9.9 fold

- urinary excretion parameters fe0-36 and CLR,0-36 between the treatments (Urinary excretion; alone vs cocktails): comparable
- AUC0-tz decrease, cocktail T3 vs cocktail T1 (T3 vs T1): 22.6%
- Cmax decrease, cocktail T3 vs cocktail T1 (T3 vs T1): 12.2%
- median tmax (after all treatments (alone and cocktails)): 1.0 h
- AUC0-tz decrease in cocktail vs drug alone (cocktail T3 vs alone (R)): 17%
- Cmax decrease in cocktail vs drug alone (cocktail T3 vs alone (R)): 11.4% and 11%
Compound: C[C@H]1O[C@@H](O[C@H]2[C@@H](O)C[C@H](O[C@H]3[C@@H](O)C[C@H](O[C@H]4CC[C@@]5(C)[C@H](CC[C@@H]6[C@@H]5C[C@@H](O)[C@]5(C)[C@@H](C7=CC(=O)OC7)CC[C@]65O)C4)O[C@@H]3C)O[C@@H]2C)C[C@H](O)[C@@H]1O [Digoxin, digoxin]
